Reference: patent US20240293379A1, “THERAPEUTIC AGENT FOR CANCER OF PATIENT WITH DECREASE IN RB1 FUNCTION USING MYT1 INHIBITOR AND CHEMOTHERAPEUTIC AGENT IN COMBINATION, AND TREATMENT METHOD THEREOF” (Chugai Seiyaku Kabushiki Kaisha, priority 2022, published 2024)
Read-outs that look alike come from different tables or passages of the source.

Test system: NCI-H661
Test: Pemetrexed cytotoxicity test upon suppression of expression of MYT1
Assay type: cell-based
Conditions: Homo sapiens, NCI-H661 (RB1 wild-type), 7 days
Procedure: Thereafter, the plates were shaken to transfect each siRNA at a final concentration of 10 nM.
The −Log 2 value of fold change of IC50 and the maximum value of Bliss score, which are indexes of the combination effect, were calculated by comparing with the actually obtained cell survival curve, and described in Table 6 (see Non Patent Literature 9).

`Nc1nc2[nH]cc(CCc3ccc(C(=O)N[C@@H](CCC(=O)O)C(=O)O)cc3)c2c(=O)[nH]1` [pemetrexed] was tested, and the IC50 (read-out: IC50 of pemetrexed, MYT1 #16, MYT1 siRNA #16 10 nM) was 45.7 nM, the IC50 (read-out: IC50 of pemetrexed, MYT1 #18, MYT1 siRNA #18 10 nM) was 129 nM and the IC50 (read-out: IC50 of pemetrexed, NT, negative control siRNA 10 nM) was 315 nM.
